The values that follow come from ChEMBL document CHEMBL6182943, “Identification of 4'-Thiouridine as an Orally Available Antiviral Agent Targeting Both RdRp and NiRAN Functions of SARS-CoV-2 Nsp12” (J Med Chem, 2025).

A value given as a limit tells only on which side of the number the result lay.

Data set [1] concerns SARS-CoV-2. Description: Antiviral activity against SARS-CoV-2 infected in african green monkey Vero cells assessed as nuclear occupancy at 30 uM pre-infected for 30 mins followed by compound addition and measured 48 hrs post-infection by DAPI staining based immunofluorescence analysis relative to control. It counts as functional, Severe acute respiratory syndrome coronavirus 2. As to conditions: time 47.5 hrs.

For data set [2], the system named is SARS-CoV-2. The data set can be described thus: Antiviral activity against SARS-CoV-2 infected in african green monkey Vero cells assessed as reduction in number of spike-protein expressing cells pre-infected for 30 mins followed by compound addition and measured 48 hrs post-infection by DAPI staining based immunofluorescence analysis. It counts as functional, organism-based. Particulars: Severe acute respiratory syndrome coronavirus 2, Vero.

Data set [3] can be described thus: AUClast in male ICR mouse at 5 mg/kg, iv measured after 24 hrs by LC-MS/MS analysis. It counts as ADME, organism-based. As to conditions: in vivo.
A short description of data set [4]: AUCinfinity in male ICR mouse at 5 mg/kg, iv measured after 24 hrs by LC-MS/MS analysis. Type of data set: ADME, organism-based. As to conditions: in vivo.
Data set [5] is described as follows: MRTinfinity in male ICR mouse at 5 mg/kg, iv measured after 24 hrs by LC-MS/MS analysis. Type of data set: ADME, organism-based. As to conditions: in vivo.
A short description of data set [6]: Tmax in male ICR mouse at 10 mg/kg, po measured after 24 hrs by LC-MS/MS analysis. It counts as ADME, organism-based. As to conditions: in vivo.
Data set [7] can be described thus: Cmax in male ICR mouse at 10 mg/kg, po measured after 24 hrs by LC-MS/MS analysis. It counts as ADME, organism-based. Particulars: in vivo.
Data set [8] is described as follows: MRTinfinity in male ICR mouse at 10 mg/kg, po measured after 24 hrs by LC-MS/MS analysis. Type of data set: ADME, organism-based. As to conditions: in vivo.
Data set [9] deals with SARS-CoV-2. The data set can be described thus: Antiviral activity against SARS-CoV-2 infected in hACE2 expressing female B6.Cg-Tg(K18-ACE2)2Prlmn/J mouse model assessed as survival rate at 100 mg/kg, po preadministered twice daily for 4 days at 8 hrs interval with four hours before and after viral challenge and measured 14 days post viral challenge relative to control. It counts as functional. As to conditions: Severe acute respiratory syndrome coronavirus 2, 336 h, time 14 day.

In data set [10] the test system is Middle East respiratory syndrome-related coronavirus. Description: Antiviral activity against MERS-CoV KOR/KNIH/002_05_2015 infected in human Huh-7 cells assessed as inhibition of virus-induced cytopathic effect measured 2 to 7 days post infection by MTT-based cell viability assay. As to conditions: KOR/KNIH/002_05_2015, Huh-7. Type of data set: functional, organism-based. (Damage to the host cells serves as the signal in cytopathic effect assays.)

In data set [11] the test system is Human coronavirus NL63. The data set can be described thus: Antiviral activity against HCoV-NL63 infected in LLC-MK2 cells assessed as inhibition of virus-induced cytopathic effect measured 2 to 7 days post infection by MTT-based cell viability assay. It counts as functional, organism-based.
Data set [12] can be described thus: Cytotoxicity against rhesus monkey LLC-MK2 cells assessed as reduction in cell viability by MTT-based cell viability assay. It counts as toxicity, Macaca mulatta.
In data set [13] the test system is rhinovirus B14. The data set can be described thus: Antiviral activity against Human rhinovirus B14 infected in human H1-HeLa cells incubated for 72 hrs. Type of data set: functional, organism-based. Particulars: Rhinovirus B.

Turning to `O=c1ccn([C@@H]2S[C@H](CO)[C@@H](O)[C@H]2O)c(=O)[nH]1`, the Activity in data set [1] is above 80%. Besides, the EC50 – broadly, the midpoint of the concentration-response curve – in data set [2] was determined as 1.71 µM; in [10], 4.04 µM; in [11], 4.53 µM; in [13], 23.7 µM. Moreover, the AUC(0-t) (usually exposure summed from dosing to a finite time, without extrapolation to infinity) at 24 h in [3] stood at 17500 ng·h/mL. For the same molecule, the AUC(0-inf) (in general, total exposure, with the tail of the curve extrapolated) in data set [4] worked out at 20500 ng·h/mL. The MRT inf – broadly, the average time that molecules of a dose stay in the body – in data set [5] was 11.4 h; in data set [8] it was 10.5 h. The Tmax (as a rule, the time from dosing to the highest level) in data set [6] came to 1 h. Also, the Cmax (commonly the highest concentration seen after dosing) in [7] came out at 4980 ng/mL. Besides, the survival at 100 mg/kg in [9] was found to be 40%. The CC50 (in general, the concentration at which the toxic effect on the cells reaches its halfway point) in data set [12] was above 100 µM.
